Measured values from patent US12077537B2 (Gilead Sciences, Inc., priority 2020, dated 2024).

These molecules were tested on HIV-IIIb (assay: Antiviral assay in MT4 cells). Conditions: Human immunodeficiency virus 1, MT4, 120 h; MT-4 cells mixed with HIV-IIIb at m.o.i. 0.003; 5 days at 37° C.; CellTiter-Glo luminescence; 50% decrease in signal, a measure of HIV-1 replication.
Format: cell-based
Summary of the method: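 Compound, tested at ten 3-fold dilutions in quadruplicate in 10% FBS medium, received MT-4 cells pre-mixed 1 hour with HIV-IIIb (m.o.i. 0.003). Protection was read as luminescent cell viability (CellTiter-Glo) after 5 days' culture at 37° C.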

| SMILES | EC50 [nM] |
| --- | --- |
| NC(=O)c1cc(-c2cc3nc(O)oc3nc2[C@H](Cc2cc(F)cc(F)c2)NC(=O)Cn2nc(C(F)(F)F)c3c2C(F)(F)[C@@H]2C[C@H]32)ccc1F [Example 114, 5-(5-((S)-1-(2-((3bS,4aR)-5,5-difluoro-3-(trifluoromethyl)-3b,4,4a,5-tetrahydro-1H-cyclopropa[3,4]cyclopenta[1,2-c]pyrazol-1-yl)acetamido)-2-(3,5-difluorophenyl)ethyl)-2-hydroxyoxazolo[5,4-b]pyridin-6-yl)-2-fluorobenzamide] | 589 |
| Cn1nc(N)c2c(Cl)ccc(-c3cc4sc(NCC(C)(C)O)nc4nc3[C@H](Cc3cc(F)cc(F)c3)NC(=O)Cn3nc(C(F)(F)F)c4c3C(F)(F)[C@@H]3C[C@H]43)c21 [Example 115, N—((S)-1-(6-(3-amino-4-chloro-1-methyl-1H-indazol-7-yl)-2-((2-hydroxy-2-methylpropyl)amino)thiazolo[4,5-b]pyridin-5-yl)-2-(3,5-difluorophenyl)ethyl)-2-((3bS,4aR)-5,5-difluoro-3-(trifluoromethyl)-3b,4,4a,5-tetrahydro-1H-cyclopropa[3,4]cyclopenta[1,2-c]pyrazol-1-yl)acetamide] | 7 |
| Cn1nc(N)c2c(Cl)ccc(-c3cc4sc(NCC(C)(C)O)nc4nc3[C@H](Cc3cc(F)cc(F)c3)NC(=O)Cn3nc(C(F)F)c4c3C(F)(F)[C@@H]3C[C@H]43)c21 [Example 116, N—((S)-1-(6-(3-amino-4-chloro-1-methyl-1H-indazol-7-yl)-2-((2-hydroxy-2-methylpropyl)amino)thiazolo[4,5-b]pyridin-5-yl)-2-(3,5-difluorophenyl)ethyl)-2-((3bS,4aR)-3-(difluoromethyl)-5,5-difluoro-3b,4,4a,5-tetrahydro-1H-cyclopropa[3,4]cyclopenta[1,2-c]pyrazol-1-yl)acetamide] | 3.5 |
| NC(=O)c1cc(-c2nc3nc(C(Cc4cc(F)cc(F)c4)NC(=O)Cn4nc(C(F)(F)F)c5c4C(F)(F)[C@@H]4C[C@H]54)c(-c4ccc(F)c(C(N)=O)c4)cc3s2)ccc1F (stereo partly drawn) [Example 117, 5,5′-(5-(1-(2-((3bS,4aR)-5,5-difluoro-3-(trifluoromethyl)-3b,4,4a,5-tetrahydro-1H-cyclopropa[3,4]cyclopenta[1,2-c]pyrazol-1-yl)acetamido)-2-(3,5-difluorophenyl)ethyl)thiazolo[4,5-b]pyridine-2,6-diyl)bis(2-fluorobenzamide)] | 93.5 |
| NC(=O)c1cc(-c2cc3sc(-c4ccccc4)nc3nc2[C@H](Cc2cc(F)cc(F)c2)NC(=O)Cn2nc(C(F)(F)F)c3c2C(F)(F)[C@@H]2C[C@H]32)ccc1F [Example 118, 5-(5-((S)-1-(2-((3bS,4aR)-5,5-difluoro-3-(trifluoromethyl)-3b,4,4a,5-tetrahydro-1H-cyclopropa[3,4]cyclopenta[1,2-c]pyrazol-1-yl)acetamido)-2-(3,5-difluorophenyl)ethyl)-2-phenylthiazolo[4,5-b]pyridin-6-yl)-2-fluorobenzamide] | 303 |
| NC(=O)c1nc2nc(C(Cc3cc(F)cc(F)c3)NC(=O)Cn3nc(C(F)(F)F)c4c3C(F)(F)[C@@H]3C[C@H]43)c(-c3ccc(F)c(C(N)=O)c3)cc2s1 (stereo partly drawn) [Example 119, 6-(3-carbamoyl-4-fluorophenyl)-5-(1-(2-((3bS,4aR)-5,5-difluoro-3-(trifluoromethyl)-3b,4,4a,5-tetrahydro-TH-cyclopropa[3,4]cyclopenta[1,2-c]pyrazol-1-yl)acetamido)-2-(3,5-difluorophenyl)ethyl)thiazolo[4,5-b]pyridine-2-carboxamide] | 72 |
| Cc1c(-c2cc3[nH]c(-c4ccccc4)cc3nc2[C@H](Cc2cc(F)cc(F)c2)NC(=O)Cn2nc(C(F)(F)F)c3c2C(F)(F)[C@@H]2C[C@H]32)ccc2n[nH]c(=O)n12 [Example 120, 2-((3bS,4aR)-5,5-difluoro-3-(trifluoromethyl)-3b,4,4a,5-tetrahydro-1H-cyclopropa[3,4]cyclopenta[1,2-c]pyrazol-1-yl)-N—((S)-2-(3,5-difluorophenyl)-1-(6-(5-methyl-3-oxo-2,3-dihydro-[1,2,4]triazolo[4,3-a]pyridin-6-yl)-2-phenyl-1H-pyrrolo[3,2-b]pyridin-5-yl)ethyl)acetamide] | 294 |
| Cn1nc(NS(C)(=O)=O)c2cccc(-c3cc4[nH]c(-c5ccccc5)cc4nc3[C@H](Cc3cc(F)cc(F)c3)NC(=O)Cn3nc(C(F)(F)F)c4c3C(F)(F)[C@@H]3C[C@H]43)c21 [Example 121, 2-((3bS,4aR)-5,5-difluoro-3-(trifluoromethyl)-3b,4,4a,5-tetrahydro-1H-cyclopropa[3,4]cyclopenta[1,2-c]pyrazol-1-yl)-N—((S)-2-(3,5-difluorophenyl)-1-(6-(1-methyl-3-(methylsulfonamido)-1H-indazol-7-yl)-2-phenyl-1H-pyrrolo[3,2-b]pyridin-5-yl)ethyl)acetamide] | 79.6 |
| Cn1nc(NS(C)(=O)=O)c2cccc(-c3cc4[nH]c(-c5ccccc5)cc4nc3[C@H](Cc3cc(F)cc(F)c3)NC(=O)Cn3nc(C(F)F)c4c3C3CC3CC4)c21 (stereo partly drawn) [Example 122, 2-(3-(difluoromethyl)-5,5a,6,6a-tetrahydrocyclopropa[g]indazol-1(4H)-yl)-N—((S)-2-(3,5-difluorophenyl)-1-(6-(1-methyl-3-(methylsulfonamido)-1H-indazol-7-yl)-2-phenyl-1H-pyrrolo[3,2-b]pyridin-5-yl)ethyl)acetamide] | 12.3 |
| Cn1cc(-c2nc3nc(C(Cc4cc(F)cc(F)c4)NC(=O)Cn4nc(C(F)(F)F)c5c4C(F)(F)[C@@H]4C[C@H]54)c(-c4cccc5c(NS(C)(=O)=O)nn(C)c45)cc3s2)cn1 (stereo partly drawn) [Example 123, 2-((3bS,4aR)-5,5-difluoro-3-(trifluoromethyl)-3b,4,4a,5-tetrahydro-1H-cyclopropa[3,4]cyclopenta[1,2-c]pyrazol-1-yl)-N-(2-(3,5-difluorophenyl)-1-(2-(1-methyl-1H-pyrazol-4-yl)-6-(1-methyl-3-(methylsulfonamido)-1H-indazol-7-yl)thiazolo[4,5-b]pyridin-5-yl)ethyl)acetamide] | 8.6 |

More lines, now with the values ahead:

| EC50 [nM] | SMILES |
| --- | --- |
| 13.6 | Cn1nc(NS(C)(=O)=O)c2cccc(-c3cc4sc(N5CCC(C)(O)CC5)nc4nc3C(Cc3cc(F)cc(F)c3)NC(=O)Cn3nc(C(F)(F)F)c4c3C(F)(F)[C@@H]3C[C@H]43)c21 (stereo partly drawn) [Example 124, 2-((3bS,4aR)-5,5-difluoro-3-(trifluoromethyl)-3b,4,4a,5-tetrahydro-1H-cyclopropa[3,4]cyclopenta[1,2-c]pyrazol-1-yl)-N-(2-(3,5-difluorophenyl)-1-(2-(4-hydroxy-4-methylpiperidin-1-yl)-6-(1-methyl-3-(methylsulfonamido)-1H-indazol-7-yl)thiazolo[4,5-b]pyridin-5-yl)ethyl)acetamide] |
| 17.4 | Cn1nc(NS(C)(=O)=O)c2cccc(-c3cc4sc(N5CCC(C)(O)C5)nc4nc3C(Cc3cc(F)cc(F)c3)NC(=O)Cn3nc(C(F)(F)F)c4c3C(F)(F)[C@@H]3C[C@H]43)c21 (stereo partly drawn) [Example 125, 2-((3bS,4aR)-5,5-difluoro-3-(trifluoromethyl)-3b,4,4a,5-tetrahydro-1H-cyclopropa[3,4]cyclopenta[1,2-c]pyrazol-1-yl)-N-(2-(3,5-difluorophenyl)-1-(2-(3-hydroxy-3-methylpyrrolidin-1-yl)-6-(1-methyl-3-(methylsulfonamido)-1H-indazol-7-yl)thiazolo[4,5-b]pyridin-5-yl)ethyl)acetamide] |
| 33.8 | Cn1nc(NS(C)(=O)=O)c2cccc(-c3cc4sc(N5CCC(C)(N)CC5)nc4nc3C(Cc3cc(F)cc(F)c3)NC(=O)Cn3nc(C(F)(F)F)c4c3C(F)(F)[C@@H]3C[C@H]43)c21 (stereo partly drawn) [Example 126, N-(1-(2-(4-amino-4-methylpiperidin-1-yl)-6-(1-methyl-3-(methylsulfonamido)-1H-indazol-7-yl)thiazolo[4,5-b]pyridin-5-yl)-2-(3,5-difluorophenyl)ethyl)-2-((3bS,4aR)-5,5-difluoro-3-(trifluoromethyl)-3b,4,4a,5-tetrahydro-TH-cyclopropa[3,4]cyclopenta[1,2-c]pyrazol-1-yl)acetamide] |
| 31.9 | Cn1nc(NS(C)(=O)=O)c2cccc(-c3cc4sc(N5CCC(C)(C(N)=O)CC5)nc4nc3C(Cc3cc(F)cc(F)c3)NC(=O)Cn3nc(C(F)(F)F)c4c3C(F)(F)[C@@H]3C[C@H]43)c21 (stereo partly drawn) [Example 127, 1-(5-(1-(2-((3bS,4aR)-5,5-difluoro-3-(trifluoromethyl)-3b,4,4a,5-tetrahydro-TH-cyclopropa[3,4]cyclopenta[1,2-c]pyrazol-1-yl)acetamido)-2-(3,5-difluorophenyl)ethyl)-6-(1-methyl-3-(methylsulfonamido)-1H-indazol-7-yl)thiazolo[4,5-b]pyridin-2-yl)-4-methylpiperidine-4-carboxamide] |
| 342 | Cn1nc(NS(C)(=O)=O)c2cccc(-c3cc4sc(NC5CNC(=O)C5)nc4nc3C(Cc3cc(F)cc(F)c3)NC(=O)Cn3nc(C(F)(F)F)c4c3C(F)(F)[C@@H]3C[C@H]43)c21 (stereo partly drawn) [Example 128, 2-((3bS,4aR)-5,5-difluoro-3-(trifluoromethyl)-3b,4,4a,5-tetrahydro-1H-cyclopropa[3,4]cyclopenta[1,2-c]pyrazol-1-yl)-N-(2-(3,5-difluorophenyl)-1-(6-(1-methyl-3-(methylsulfonamido)-1H-indazol-7-yl)-2-((5-oxopyrrolidin-3-yl)amino)thiazolo[4,5-b]pyridin-5-yl)ethyl)acetamide] |
